Assay results as given in ChEMBL document CHEMBL1147597, “Synthesis and biological evaluations of novel benzimidazoles as potential antibacterial agents” (Bioorg Med Chem Lett, 2004).
Values after ≈ are worked out from the molar mass of the structure shown.

Legend:
[1] = system: Escherichia coli; test: Minimal inhibitory concentration against Escherichia coli (Range is 25-50 uM); type: functional
[2] = system: Escherichia coli; test: Minimal inhibitory concentration against gram negative Escherichia coli 25922 strain (Range is 25-50 uM); type: functional; settings: ATCC25922
[3] = system: Pseudomonas aeruginosa; test: Minimal inhibitory concentration against gram negative Pseudomonas aeruginosa 25416 strain (Range is 50-100 uM); type: functional
[4] = system: Bacteria; test: Inhibitory activity against bacteria in the transcription/translation assay; type: functional, organism-based
[5] = system: Streptococcus pneumoniae; test: Minimal inhibitory concentration against gram positive Streptococcus pneumoniae 6303 strain (Range is 12-25 uM); type: functional
[6] = system: Staphylococcus aureus; test: Minimal inhibitory concentration against gram positive Staphylococcus aureus 13709 strain (Range is 6-12 uM); type: functional
[7] = system: Proteus vulgaris; test: Minimal inhibitory concentration against gram negative Proteus vulgaris 8427 strain (Range is 25-50 uM); type: functional
[8] = system: Streptococcus pyogenes; test: Minimal inhibitory concentration against gram positive Streptococcus pyogenes 49399 strain (Range is 25-50 uM); type: functional
[9] = system: Klebsiella pneumoniae; test: Minimal inhibitory concentration against gram negative Klebsiella pneumoniae 13383 strain (Range is 25-50 uM); type: functional
[10] = system: Enterococcus hirae; test: Minimal inhibitory concentration against gram positive Enterococcus hirae 29212 strain (Range is 25-50 uM); type: functional
[11] = system: Staphylococcus aureus; test: Minimal inhibitory concentration against Staphylococcus aureus (Range is 12-50 uM); type: functional
[12] = system: Pseudomonas aeruginosa; test: Minimal inhibitory concentration against gram negative Pseudomonas aeruginosa 25416 strain; type: functional
[13] = system: Enterococcus hirae; test: Minimal inhibitory concentration against gram positive Enterococcus hirae 29212 strain (Range is 3-6 uM); type: functional
[14] = system: Proteus vulgaris; test: Minimal inhibitory concentration against gram negative Proteus vulgaris 8427 strain (Range is 12-25 uM); type: functional
[15] = system: Escherichia coli; test: Minimal inhibitory concentration against Escherichia coli (Range is 12-25 uM); type: functional
[16] = system: Streptococcus pyogenes; test: Minimal inhibitory concentration against gram positive Streptococcus pyogenes 49399 strain (Range is 6-12 uM); type: functional
[17] = system: Staphylococcus aureus; test: Minimal inhibitory concentration against Staphylococcus aureus (Range is 6-12 uM); type: functional
[18] = system: Escherichia coli; test: Minimal inhibitory concentration against gram negative Escherichia coli 25922 strain (Range is 12-25 uM); type: functional; settings: ATCC25922
[19] = system: Streptococcus pneumoniae; test: Minimal inhibitory concentration against gram positive Streptococcus pneumoniae 6303 strain (Range is 6-12 uM); type: functional
[20] = system: Pseudomonas aeruginosa; test: Minimal inhibitory concentration against gram negative Pseudomonas aeruginosa 25416 strain (Range is 12-25 uM); type: functional
[21] = system: Enterococcus hirae; test: Minimal inhibitory concentration against gram positive Enterococcus hirae 29212 strain (Range is 1-3 uM); type: functional
[22] = system: Klebsiella pneumoniae; test: Minimal inhibitory concentration against gram negative Klebsiella pneumoniae 13383 strain (Range is 6-12 uM); type: functional
[23] = system: Streptococcus pyogenes; test: Minimal inhibitory concentration against gram positive Streptococcus pyogenes 49399 strain (Range is 3-6 uM); type: functional
[24] = system: Escherichia coli; test: Minimal inhibitory concentration against gram negative Escherichia coli 25922 strain (Range is 6-12 uM); type: functional; settings: ATCC25922
[25] = system: Staphylococcus aureus; test: Minimal inhibitory concentration against gram positive Staphylococcus aureus 13709 strain (Range is 3-6 uM); type: functional
[26] = system: Staphylococcus aureus; test: Minimal inhibitory concentration against Staphylococcus aureus (Range is 3-6 uM); type: functional
[27] = system: Escherichia coli; test: Minimal inhibitory concentration against Escherichia coli (Range is 6-12 uM); type: functional
[28] = system: Escherichia coli; test: Minimal inhibitory concentration against gram negative Escherichia coli 25922 strain (Range is 12-26 uM); type: functional; settings: ATCC25922
[29] = system: Enterococcus hirae; test: Minimal inhibitory concentration against gram positive Enterococcus hirae 29212 strain (Range is 0.75-1.5 uM); type: functional
[30] = system: Staphylococcus aureus; test: Minimal inhibitory concentration against Staphylococcus aureus (Range is 12-25 uM); type: functional
[31] = system: Staphylococcus aureus; test: Minimal inhibitory concentration against gram positive Staphylococcus aureus 13709 strain (Range is 3-7 uM); type: functional
[32] = system: Pseudomonas aeruginosa; test: Minimal inhibitory concentration against gram negative Pseudomonas aeruginosa 25416 strain (Range is 6-12 uM); type: functional
[33] = system: Proteus vulgaris; test: Minimal inhibitory concentration against gram negative Proteus vulgaris 8427 strain (Range is 50-100 uM); type: functional
[34] = system: Escherichia coli; test: Minimal inhibitory concentration against gram negative Escherichia coli 25922 strain; type: functional; settings: ATCC25922
[35] = system: Escherichia coli; test: Minimal inhibitory concentration against Escherichia coli; type: functional
[36] = system: Staphylococcus aureus; test: Minimal inhibitory concentration against Staphylococcus aureus (Range is 1-3 uM); type: functional
[37] = system: Escherichia coli; test: Minimal inhibitory concentration against Escherichia coli (Range is 3-6 uM); type: functional
[38] = system: Klebsiella pneumoniae; test: Minimal inhibitory concentration against gram negative Klebsiella pneumoniae 13383 strain (Range is 12-25 uM); type: functional
[39] = system: Proteus vulgaris; test: Minimal inhibitory concentration against gram negative Proteus vulgaris 8427 strain; type: functional
[40] = system: Klebsiella pneumoniae; test: Minimal inhibitory concentration against gram negative Klebsiella pneumoniae 13383 strain (Range is 50-100 uM); type: functional
[41] = system: Pseudomonas aeruginosa; test: Minimal inhibitory concentration against gram negative Pseudomonas aeruginosa 25416 strain (Range is 25-50 uM); type: functional

SMILES | IC50 [4] | MIC [5] | MIC [6] | MIC [7] | MIC [9] | MIC [15] | MIC [16] | MIC [17] | MIC [19] | MIC [21] | MIC [22] | further results
O=C1c2ccccc2C(=O)N1CCCCCn1c(C2CCNCC2)nc2cc(Cl)c(Cl)cc21 | 25 µM | 25 µM (≈ 12.1 µg/mL) | 12 µM (≈ 5.82 µg/mL) | 50 µM (≈ 24.3 µg/mL) | 50 µM (≈ 24.3 µg/mL) |  |  |  |  |  |  | MIC [1]: 50 µM (≈ 24.3 µg/mL); MIC [2]: 50 µM (≈ 24.3 µg/mL); MIC [3]: 100 µM (≈ 48.5 µg/mL); MIC [8]: 50 µM (≈ 24.3 µg/mL); MIC [10]: 50 µM (≈ 24.3 µg/mL); MIC [11]: 50 µM (≈ 24.3 µg/mL)
O=C(Cn1c(C2CCNCC2)nc2cc(Cl)c(Cl)cc21)NNC(=O)NC12C[C@H]3C[C@@H](C1)C[C@@H](C2)C3 | > 100 µM | 25 µM (≈ 13 µg/mL) | 12 µM (≈ 6.23 µg/mL) |  | 50 µM (≈ 26 µg/mL) | 25 µM (≈ 13 µg/mL) | 12 µM (≈ 6.23 µg/mL) | 12 µM (≈ 6.23 µg/mL) |  |  |  | MIC [12]: > 100 µM; MIC [13]: 6 µM (≈ 3.12 µg/mL); MIC [14]: 25 µM (≈ 13 µg/mL); MIC [18]: 25 µM (≈ 13 µg/mL)
Clc1cc2nc(C3CCNCC3)n(CCCCCCn3c(C4CCNCC4)nc4cc(Cl)c(Cl)cc43)c2cc1Cl | > 100 µM |  | 12 µM (≈ 7.47 µg/mL) |  |  | 25 µM (≈ 15.6 µg/mL) |  | 12 µM (≈ 7.47 µg/mL) | 12 µM (≈ 7.47 µg/mL) | 3 µM (≈ 1.87 µg/mL) | 12 µM (≈ 7.47 µg/mL) | MIC [20]: 25 µM (≈ 15.6 µg/mL); MIC [18]: 25 µM (≈ 15.6 µg/mL); MIC [23]: 6 µM (≈ 3.73 µg/mL)
Clc1cc2nc(C3CCNCC3)n(Cc3ccc(Cn4c(C5CCNCC5)nc5cc(Cl)c(Cl)cc54)cc3)c2cc1Cl | > 100 µM |  |  |  |  |  |  |  | 12 µM (≈ 7.71 µg/mL) | 3 µM (≈ 1.93 µg/mL) | 12 µM (≈ 7.71 µg/mL) | MIC [24]: 12 µM (≈ 7.71 µg/mL); MIC [25]: 6 µM (≈ 3.85 µg/mL); MIC [20]: 25 µM (≈ 16.1 µg/mL); MIC [26]: 6 µM (≈ 3.85 µg/mL); MIC [23]: 6 µM (≈ 3.85 µg/mL); MIC [27]: 12 µM (≈ 7.71 µg/mL)
Clc1cc2nc(C3CCNCC3)n(CCCCCn3c(C4CCNCC4)nc4cc(Cl)c(Cl)cc43)c2cc1Cl | 35 µM |  |  | 50 µM (≈ 30.4 µg/mL) | 50 µM (≈ 30.4 µg/mL) | 25 µM (≈ 15.2 µg/mL) |  |  | 12 µM (≈ 7.3 µg/mL) |  |  | MIC [28]: 26 µM (≈ 15.8 µg/mL); MIC [29]: 1.5 µM (≈ 0.913 µg/mL); MIC [30]: 25 µM (≈ 15.2 µg/mL); MIC [8]: 50 µM (≈ 30.4 µg/mL); MIC [31]: 7 µM (≈ 4.26 µg/mL); MIC [32]: 12 µM (≈ 7.3 µg/mL)
O=C(Cn1c(C2CCNCC2)nc2cc(Cl)c(Cl)cc21)N/N=C/c1c[nH]c2ccc(OCc3ccccc3)cc12 | > 100 µM | 25 µM (≈ 14.4 µg/mL) |  |  |  |  | 12 µM (≈ 6.91 µg/mL) |  |  |  | 12 µM (≈ 6.91 µg/mL) | MIC [25]: 6 µM (≈ 3.45 µg/mL); MIC [3]: 100 µM (≈ 57.6 µg/mL); MIC [13]: 6 µM (≈ 3.45 µg/mL); MIC [33]: 100 µM (≈ 57.6 µg/mL); MIC [34]: > 100 µM; MIC [35]: > 100 µM; MIC [26]: 6 µM (≈ 3.45 µg/mL)
NC[C@@H]1O[C@H](O[C@H]2[C@@H](O)[C@H](O[C@@H]3[C@@H](O)[C@H](N)C[C@H](N)[C@H]3O[C@H]3O[C@H](CO)[C@@H](O)[C@H](O)[C@H]3N)O[C@@H]2CO)[C@H](N)[C@@H](O)[C@@H]1O [PAROMOMYCIN] |  |  |  |  |  |  |  |  |  |  |  | MIC [36]: 3 µM (≈ 1.85 µg/mL); MIC [37]: 6 µM (≈ 3.69 µg/mL)
COc1cc(NC(=O)NNC(=O)Cn2c(C3CCNCC3)nc3cc(Cl)c(Cl)cc32)cc(OC)c1 | > 100 µM | 25 µM (≈ 13 µg/mL) | 12 µM (≈ 6.26 µg/mL) |  |  |  | 12 µM (≈ 6.26 µg/mL) | 12 µM (≈ 6.26 µg/mL) |  | 3 µM (≈ 1.56 µg/mL) |  | MIC [1]: 50 µM (≈ 26.1 µg/mL); MIC [12]: > 100 µM; MIC [2]: 50 µM (≈ 26.1 µg/mL); MIC [38]: 25 µM (≈ 13 µg/mL); MIC [39]: > 100 µM
O=C1C=CC(=O)N1CCCCCn1c(C2CCNCC2)nc2cc(Cl)c(Cl)cc21 | > 100 µM |  | 12 µM (≈ 5.22 µg/mL) |  |  |  |  | 12 µM (≈ 5.22 µg/mL) | 12 µM (≈ 5.22 µg/mL) |  |  | MIC [12]: > 100 µM; MIC [40]: 100 µM (≈ 43.5 µg/mL); MIC [8]: 50 µM (≈ 21.8 µg/mL); MIC [34]: > 100 µM; MIC [35]: > 100 µM; MIC [39]: > 100 µM; MIC [10]: 50 µM (≈ 21.8 µg/mL)
O=C(Cn1c(C2CCNCC2)nc2cc(Cl)c(Cl)cc21)NNC(=O)Nc1ccc2ccccc2c1 | > 100 µM | 25 µM (≈ 12.8 µg/mL) | 12 µM (≈ 6.14 µg/mL) | 50 µM (≈ 25.6 µg/mL) |  | 25 µM (≈ 12.8 µg/mL) | 12 µM (≈ 6.14 µg/mL) | 12 µM (≈ 6.14 µg/mL) |  |  | 12 µM (≈ 6.14 µg/mL) | MIC [41]: 50 µM (≈ 25.6 µg/mL); MIC [13]: 6 µM (≈ 3.07 µg/mL); MIC [18]: 25 µM (≈ 12.8 µg/mL)
O=C(Cn1c(C2CCNCC2)nc2cc(Cl)c(Cl)cc21)N/N=C/c1cnn(-c2ccccc2)c1Cl | > 100 µM | 25 µM (≈ 13.3 µg/mL) | 12 µM (≈ 6.37 µg/mL) | 50 µM (≈ 26.5 µg/mL) | 50 µM (≈ 26.5 µg/mL) |  | 12 µM (≈ 6.37 µg/mL) | 12 µM (≈ 6.37 µg/mL) |  | 3 µM (≈ 1.59 µg/mL) |  | MIC [3]: 100 µM (≈ 53.1 µg/mL); MIC [34]: > 100 µM; MIC [35]: > 100 µM
